Molecules are shown by their SMILES. Bounds are passed on as bounds.

A word on the IC50: it is the midpoint of a concentration-inhibition curve.

For this assay, the target named is Mitogen-activated protein kinase kinase kinase kinase 1 (Homo sapiens, UniProt Q92918). Briefly: Biochemical Enzyme Assay: HPK1 biochemical enzyme assay: HPK1 enzyme inhibition was measured using a microfluidic mobility shift assay. […] Test compounds were titrated in ten point curves (top final assay concentration 3 μM), and preincubated with enzyme/substrate mix for 30 min prior to initiation of the reaction by addition of ATP (1 mM final concentration) and substrate (1 μM final concentration; Carna Biosciences) diluted in assay buffer supplemented by MgCl2 (final assay concentration of 5 mM). Following 60 min incubation at RT, the reaction was terminated by addition of 60 µl/well termination buffer (Carna Biosciences) and signal determination using aCaliper EZ Reader (Perkin Elmer, UK).
Mitogen-activated protein kinase kinase kinase kinase 1, sequence (Q92918 whole entry): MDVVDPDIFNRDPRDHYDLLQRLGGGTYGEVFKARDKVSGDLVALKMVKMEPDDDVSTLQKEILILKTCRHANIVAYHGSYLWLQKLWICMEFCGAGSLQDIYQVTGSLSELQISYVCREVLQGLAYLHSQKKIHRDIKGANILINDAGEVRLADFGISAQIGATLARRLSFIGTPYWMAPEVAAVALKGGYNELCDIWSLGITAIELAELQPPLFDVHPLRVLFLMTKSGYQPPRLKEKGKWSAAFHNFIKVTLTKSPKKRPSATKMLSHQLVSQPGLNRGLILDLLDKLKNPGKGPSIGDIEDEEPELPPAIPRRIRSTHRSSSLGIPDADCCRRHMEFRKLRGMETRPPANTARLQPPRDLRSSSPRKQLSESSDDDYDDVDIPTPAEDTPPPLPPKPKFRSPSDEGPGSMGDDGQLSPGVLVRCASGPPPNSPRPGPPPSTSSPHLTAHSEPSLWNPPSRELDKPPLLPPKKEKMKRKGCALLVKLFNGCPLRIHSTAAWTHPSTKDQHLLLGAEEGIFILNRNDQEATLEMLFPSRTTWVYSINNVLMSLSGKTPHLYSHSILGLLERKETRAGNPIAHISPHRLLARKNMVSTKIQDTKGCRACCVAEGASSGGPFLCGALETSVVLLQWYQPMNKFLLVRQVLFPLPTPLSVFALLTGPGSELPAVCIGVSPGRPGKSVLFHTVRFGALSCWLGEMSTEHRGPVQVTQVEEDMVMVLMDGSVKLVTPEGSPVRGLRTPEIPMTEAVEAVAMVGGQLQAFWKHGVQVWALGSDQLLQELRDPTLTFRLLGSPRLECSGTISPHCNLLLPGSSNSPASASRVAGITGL

For the compound `COCC1(O)CCN(c2ccc(Nc3ccc(-c4cnc5cc(F)ccn45)c4c3C(=O)NC4)nc2)CC1`, the IC50 was < 100 nM.
Turning to `O=C1NCc2c(-c3cnc4cc(F)ccn34)ccc(Nc3ccc([C@]4(O)CCOC4)cn3)c21`, the IC50 was < 100 nM.
Regarding `Cn1ccc2c(-c3ccc(Nc4ccc(N5CCO[C@H](C(C)(C)O)C5)cn4)c4c3CNC4=O)ncnc21`, the IC50 was < 100 nM.
`Cn1ccc2c(-c3ncc(Nc4ccc(N5CCOCC5)cn4)c4c3CNC4=O)ccnc21`: the IC50 is < 100 nM.
`CN(C)C[C@H]1CN(c2ccc(Nc3cnc(-c4ccnc5c4ccn5C)c4c3C(=O)NC4)nc2)CCO1`: the IC50 was < 100 nM.
For `CN(C)CCc1nc(Nc2ccc(-c3cnc4cc(F)ccn34)c3c2C(=O)NC3)ccc1[C@H]1CCOC1` the value was < 100 nM; for `CN(C)CCc1nc(Nc2ccc(-c3cnc4cc(F)ccn34)c3c2C(=O)NC3)ccc1[C@@H]1CCOC1`, < 100 nM.
For `Cc1ccn2c(-c3ccc(Nc4ccc(N5CCC[C@](O)(CN(C)C)C5)cn4)c4c3CNC4=O)cnc2c1F` the value was < 100 nM; for `C[C@@H]1CCn2ncc(-c3ccc(Nc4ccc(N5CCN(C)CC5)cn4)c4c3CNC4=O)c2C1`, < 100 nM.
For the compound `COc1cc(Nc2ccc(-c3ccnc4c3ccn4C)c3c2C(=O)NC3)ncc1N1CCC(O)CC1`, the IC50 was < 100 nM.
For the compound `O=C1NCc2c(-c3cnc4ccccn34)ncc(Nc3ccc(N4CC[C@@H](F)[C@H](O)C4)cn3)c21`, the IC50 was < 100 nM.
`CN(C)C[C@H]1CN(c2ccc(Nc3ccc(-c4cnc5cc(Cl)ccn45)c4c3C(=O)NC4)nc2)CCO1`: the IC50 is < 100 nM.
Next, `CC(C)(NC1CC1)C1CN(c2ccc(Nc3ccc(-c4cnc5cc(F)ccn45)c4c3C(=O)NC4)nc2)CCO1` (stereo unspecified): < 100 nM.
For `O=C1NCc2c(-c3cnc4cc(F)ccn34)ccc(Nc3ccc([C@@]4(O)CCOC4)cn3)c21` the value was < 100 nM; for `Cn1ccc2c(-c3ccc(Nc4ccc(N5CCO[C@@H](C(C)(C)O)C5)cn4)c4c3CNC4=O)ncnc21`, < 100 nM; for `COC1(CO)CCN(c2ccc(Nc3ccc(-c4cnc5cc(F)ccn45)c4c3C(=O)NC4)nc2)CC1`, < 100 nM.
Regarding `Cc1ccn2c(-c3ccc(Nc4ccc(N5CCC[C@@](O)(CN(C)C)C5)cn4)c4c3CNC4=O)cnc2c1F`, the IC50 was < 100 nM.
Turning to `CCN(C)Cc1nc(Nc2ccc(-c3cnc4cc(F)ccn34)c3c2C(=O)NC3)ccc1[C@H]1CCOC1`, the IC50 is < 100 nM.
Next, `O=C1NCc2c(-c3cnc4ccccn34)ncc(Nc3ccc(C4(O)CCOCC4)cn3)c21`: < 100 nM; `Cc1cc(Nc2ccc(N3CCC(O)CC3)cn2)c2c(c1-c1cccc3c1ccn3C)CNC2=O`: < 100 nM.
With `CN(C)C1(c2ccc(Nc3ccc(-c4cnc5cc(F)ccn45)c4c3C(=O)NC4)nc2)CCOCC1`, the IC50 is < 100 nM.
Turning to `CN1CC[C@H](c2ccc(Nc3cnc(-c4ccnc5c4ccn5C)c4c3C(=O)NC4)nc2)CC1=O`, the IC50 is < 100 nM.
`Cn1ccc2c(-c3ncc(Nc4ccc(N5CCC(C)(O)CC5)cn4)c4c3CNC4=O)ccnc21`: the IC50 is < 100 nM.
As to `CN(C)C[C@@H]1CN(c2ccc(Nc3cnc(-c4ccnc5c4ccn5C)c4c3C(=O)NC4)nc2)CCO1`, the IC50 is < 100 nM.
For `O=C1NCc2c(-c3cnc4cc(C(F)F)ccn34)ccc(Nc3ccc([C@]4(O)CCOC4)cn3)c21` the value was < 100 nM; for `CN1CC[C@@H](c2ccc(Nc3cnc(-c4ccnc5c4ccn5C)c4c3C(=O)NC4)nc2)CC1=O`, < 100 nM.

The values above are taken from ChEMBL document CHEMBL5728495, “Substituted isoindolin-1-ones and 2,3-dihydro-1h-pyrrolo[3,4-c]pyridin-1-ones as HPK1 antagonists” (2021).
